Columns and labels:
Type in all cases: cell-based
Botryosphaeria dothidea = test: In vitro mycelium growth test on malt agar medium; conditions: 50 ppm in malt agar, 22° C., colony diameter, Abbott formula
Description: (§1) This test is carried out on representative fungi found in grape plants showing “Esca” Symptoms
(§2) Formulated products are diluted in sterilized dematerialized water at the desired concentration and added to malt agar medium. Fluopyram and penflufen were used as a […] formulation formulation containing 100 g/l active ingredient (SC 100), Bixafen as a emulsifiable concentrate formulation containing 200 g/l active ingredient (EC 200), and tebuconazole as a oil in water emulsion formulation containing 250 g/l active ingredient (EW 250). The medium containing the product to be tested is poured in 90 mm diameter Petri dishes. Each dish is then inoculated using a 5 mm diameter mycelium plug taken, using a cork borer, from the active growing edge of a colony.
(§3) Inoculated Petri dishes are then incubated at 22° C. with a photoperiod of 12 h. The incubation period corresponds to the time required for the fungus to invade the entire surface of the growth medium. At that time, mycelium growth is evaluated by calculating the mean of two perpendicular measure of the colony diameter. A percentage of efficacy is then calculated (Abbott formula).
(§4) The concentration of 50 ppm corresponds approximately to about 50 g/ha when an application amount of 1000 l water per hectare is used.

Botryosphaeria obtusa = test: In vitro mycelium growth test on malt agar medium; conditions: 50 ppm in malt agar, 22° C., colony diameter, Abbott formula
Description: as §1, §2, §3, §4

Eutypa lata = test: In vitro mycelium growth test on malt agar medium; conditions: 50 ppm in malt agar, 22° C., colony diameter, Abbott formula
Description: as §1, §2, §3, §4

Formitiporia mediteranea = test: In vitro mycelium growth test on malt agar medium
Description: as §1, §2, §3, §4

[1] = system: Phaemoniella chlamydospora; test: In vitro mycelium growth test on malt agar medium
Description: as §1, §2, §3, §4

[2] = system: Phaeoacremonium aleophilum; test: In vitro mycelium growth test on malt agar medium; conditions: 50 ppm in malt agar, 22° C., colony diameter, Abbott formula
Description: as §1, §2, §3, §4

[3] = system: several fungi belonging to the community usually found in plants showing Esca symptoms; test: In vitro mycelium growth test, summary over the Esca fungi community; conditions: at 50 ppm
Description: as §1, §2, §3, §4

[4] = Formitiporia mediteranea, 50 ppm in malt agar, 22° C., colony diameter, Abbott formula
[5] = Phaemoniella chlamydospora, 50 ppm in malt agar, 22° C., colony diameter, Abbott formula

SMILES | In Vitro Efficacy Mycellium** (Botryosphaeria dothidea) | In Vitro Efficacy Mycellium** (Botryosphaeria obtusa) | In Vitro Efficacy Mycellium** (Eutypa lata) | In Vitro Efficacy Mycellium** (Formitiporia mediteranea; [4]) | In Vitro Efficacy Mycellium** [1, 5] | In Vitro Efficacy Mycellium** [2] | reduction of several fungi of the Esca community [3] | In Vitro Efficacy Mycellium** (Formitiporia mediteranea; 50 ppm) | In Vitro Efficacy Mycellium** ([1]; 50 ppm)
Cc1nn(C)c(F)c1C(=O)Nc1ccccc1C(C)CC(C)C (stereo not drawn) [Penflufen, penflufen] | 64% | 65% | 83% | 100% | 75% | 62% | significant reduction |  | 
O=C(NCCc1ncc(C(F)(F)F)cc1Cl)c1ccccc1C(F)(F)F [Fluopyram, N-[2-[3-chloro-5-(trifluoromethyl)-2-pyridinyl]ethyl]-2-(trifluoromethyl)benzamide] | 55% | 65% | 61% |  |  | 35% | significant reduction | 10% | 59%
CC(C)(C)C(O)(CCc1ccc(Cl)cc1)Cn1cncn1 (stereo not drawn) [Tebuconazole, tebuconazole] | 100% | 100% | 100% |  |  | 100% |  | 100% | 100%
Cn1cc(C(=O)Nc2ccc(F)cc2-c2ccc(Cl)c(Cl)c2)c(C(F)F)n1 [Bixafen, bixafen] | 86% | 85% | 100% | 100% | 100% | 69% | significant reduction |  | 

Source: patent US9408386B2, “Use of succinate dehydrogenase inhibitors (SDHIs) for controlling wood diseases in grape” (BAYER CROPSCIENCE AG, priority 2012, dated 2016)
